Common to all, as to assay: growth of human tumour cells (NCI), 48 h
The subject of test [1] is CAKI-1 renal.
Test [2] relates to HCC-2998 colon.
In test [3] the test system is HT29 colon.
In test [4] the test system is IGROV1 ovarian.
In test [5] the test system is M14 melanoma.
Test [6] concerns MALME-3M melanoma.
For test [7], the system named is NCI-H522 lung.
Test [8] concerns SK-OV-3 ovarian.
For test [9], the system named is SW-620 colon.
In test [10] the test system is TK-10 renal.

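How tested: cells in 96-well plates exposed to compound for 48 hours at five concentrations. At the GI50, growth is halved. TGI is the concentration that stops growth completely.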

We go through nine molecules from PubChem BioAssay (NCI).

With `O=CC1CCCc2ccccc21` (stereo not given), the TGI in test [1], in test [2], in test [3], in [4], in test [5] and in [6] was more than 100 µM in each case. In addition, the TGI was more than 100 µM in [7], more than 100 µM in test [8], more than 56.6 µM in test [9] and more than 100 µM in [10].
On to `CCc1ccc(NC(=O)COC(=O)c2cc([N+](=O)[O-])ccc2Sc2nnnn2C)cc1`, for which the GI50 is 13.7 µM in [1]; 15.7 µM in test [2]; 11.1 µM in [3]; 24.3 µM in [4]; 3.16 µM in test [5]; 24.2 µM in test [6]. Also, the GI50 was 11.5 µM in [7], 27.1 µM in test [8], 10.9 µM in test [9] and 46.4 µM in test [10]. Further, the TGI in test [1] is 46.5 µM; in test [2], 29.2 µM; in [3], 29.3 µM; in test [4] it was 95.7 µM; in test [5] it was 26 µM; in [6] it was more than 100 µM. Besides, the TGI is 36.3 µM in [7], more than 100 µM in [8], 31.5 µM in test [9] and more than 100 µM in test [10].
For the molecule `Cn1cc(C2=C(c3cccc(OCC(O)CO)c3)C(=O)NC2=O)c2ccccc21` (stereo not given), the GI50 in test [1], in test [2], in test [3], in [4], in test [5] and in [6] was more than 25 µM throughout. The GI50 in [7], in test [8], in test [9] and in test [10] was more than 25 µM in each case. The TGI in test [1], in test [2], in test [3], in test [4], in test [5] and in test [6] was more than 25 µM in each case. In addition, the TGI in test [7], in test [8], in test [9] and in test [10] was more than 25 µM in each case.
For `O=[N+]([O-])c1cccc([As]=[As]c2cccc([N+](=O)[O-])c2)c1` (stereo not given), the GI50 is 0.137 µM in test [1]; 0.13 µM in test [2]; 0.159 µM in [3]; 0.0587 µM in test [4]; 0.136 µM in test [5]; 0.0562 µM in [6]. The GI50 in test [7] was 0.0154 µM; in [8] it was 0.177 µM; in test [9], 0.046 µM; in test [10], 0.132 µM. In addition, the TGI stood at 0.281 µM in [1]; 0.275 µM in [2]; 0.329 µM in test [3]; 0.211 µM in test [4]; 0.287 µM in [5]; 0.155 µM in [6]. Further, the TGI came to 0.0304 µM in test [7], 0.317 µM in [8], 0.195 µM in test [9] and 0.266 µM in test [10].
For `O=C(Nc1cccc(NC(=O)Nc2cc(C(F)(F)F)ccc2Cl)c1)Nc1cc(C(F)(F)F)ccc1Cl`, the GI50 in test [1] was 3.14 µM; in test [2], 6.72 µM; in [3] it was 4.26 µM; in test [4] it was 3.52 µM; in test [5], 3.53 µM; in [6], 4.55 µM. In addition, the GI50 in [7] was 1.21 µM; in test [8] it was 2.9 µM; in [9], 3.28 µM; in test [10] it was 2.57 µM. The TGI is more than 100 µM in test [1]; more than 100 µM in test [2]; 66.1 µM in test [3]; 18.8 µM in [4]; 60 µM in test [5]; 44.1 µM in test [6]. Besides, the TGI was 7.78 µM in test [7], 11.3 µM in [8], more than 100 µM in test [9] and 11.5 µM in test [10].
Consider `CC#CC(=O)SCCNC(=O)CC`, for which the TGI in [1], in test [2], in [3], in [4], in [5] and in test [6] was more than 10 µM each time. Further, the TGI in [7] is 3.14 µM; in test [8] it was more than 10 µM; in test [9], more than 10 µM; in [10], more than 10 µM.
For the molecule `C1=C2/CC[C@H](Sc3ccccc3)[C@H]2C2(CCCCC/1)OCCO2`, the TGI in test [1] was 63 µM; in [2] it was 41.3 µM; in test [3], more than 100 µM; in [4], more than 100 µM; in test [5] it was 93 µM; in [6], 73.8 µM. The TGI in [7] is 39.6 µM; in [8], more than 100 µM; in test [9] it was more than 100 µM; in test [10], more than 100 µM.
Turning to `CCN(CC)Cc1ccc(Nc2nccc(-c3cnn4ncccc34)n2)cc1`, the GI50 in test [1] is 0.0469 µM; in test [2] it was 0.0333 µM; in test [3] it was 0.0121 µM; in test [4] it was 0.0275 µM; in test [5], 0.0291 µM; in test [6], 0.033 µM. For the same molecule, the GI50 is 0.049 µM in [7], 0.0825 µM in [8], 0.0136 µM in test [9] and 0.0236 µM in test [10]. Further, the TGI was more than 9.11 µM in test [1]; 0.129 µM in [2]; 0.0984 µM in test [3]; more than 20.8 µM in test [4]; 0.0845 µM in test [5]; 0.11 µM in [6]. Moreover, the TGI in test [7] is 0.116 µM; in test [8] it was more than 25 µM; in test [9], more than 9.07 µM; in [10], 0.188 µM.
Turning to `Cc1[nH]c2ccccc2c1C1Cc2ccccc2N1C(=O)/C=C/C(=O)O` (stereo not given), the TGI in test [1], in test [2], in test [3], in test [4], in test [5] and in [6] was more than 100 µM each time. For the same molecule, the TGI in test [7], in test [8], in test [9] and in [10] was more than 100 µM throughout.
